Results as given in US20140235685A1, “PHARMACEUTICAL COMPOSITIONS COMPRISING 4-BROMO-N-(IMIDAZOLIDIN-2-YLIDENE)-1H-BENZIMIDAZOL-5-AMINE FOR TREATING SKIN DISEASES” (Allergan, Inc., priority 2011, published 2014).

Test system: cutaneous blood flow in the microvasculature of the hind foot pad
Experiment: Rat Blood Flow Assay (laser Doppler flowmetry, hind foot pad)
Format: in vivo
Protocol: α-adrenergic agonists that act on the sympathetic nervous system outflow can regulate cutaneous blood flow in response to temperature changes.
A laser Doppler microvascular perfusion monitor (Laser Doppler Flowmetry LDP technique), was used to monitor red blood cell perfusion in the microvasculature of the hind foot pad. The laser doppler flowmetry (LDP) is an OxyFlo Microvascular Perfusion Monitor, from Oxford Optronix LTd. UK.
Briefly, 15 μL of test articles were applied topically to one hind foot pad of anaesthetized CD rats and 15 μL of vehicle was applied to the other footpad. The hairless CD rats used are a spontaneous mutation model isolated from a Crl:CD(SD) colony in Charles River, in the late 1980s. Rederived in 1993 and subsequently transferred to Charles River, Raleigh, N.C. for barrier room production. […] Specific genetic analysis to identify the mutation has not been undertaken. Histopathology has determined the model is euthymic.
Thirty minutes following test article administration, dynamic blood flow changes were measured and recorded every 15 seconds for 4 minutes per temperature interval for 5 intervals (22° C.→37° C.→4° C.→37° C.→22° C.). Rats were placed on a 37° C. heat pad to increase their temperature and on an ice pad to decrease their temperature to 4° C. The level of blood flow in the two paws was compared. […] It has a significant difference.

SMILES: Brc1c(N=C2NCCN2)ccc2[nH]cnc12 [4-bromo-N-(imidazolidin-2-ylidene)-1H-benzimidazol-5-amine]
- effect on induced vessel dilation caused at 37° C. (topical application to the skin at a concentration of 0.5%, FIG. 1): inhibited the induced vessel dilation
- overall blood flow inhibition (topical, 15 μL to one hind foot pad of anaesthetized hairless CD rats vs vehicle on other footpad, measured 30 min after application over 5 temperature intervals (22→37→4→37→22° C.), P=0.014): 17%
